Source: patent publication US7931791B2, “Method of detecting analyte-biomolecule interactions” (Southern Illinois University Carbondale, priority 2006, dated 2011)

Legend:
[1] = target: T1, BSA (Bos taurus, UniProt P02769); experiment: progesterone ligand binding assay by capillary IEF with fluorescence anisotropy, reference protein; conditions: ~100 nM of each labeled protein, 100 nM fluorescein labeled progesterone, 1% ampholytes, focused at 300V; FIG. 9D
T1 construct: purchased Fisher Scientific (Fairlawn, N.J.)
Experimental: Chemicals. Acetic acid, ammonium acetate, hydroxypropyl cellulose (HPC, avg. MW 100,000), HPLC grade dimethylsulfoxide (DMSO), HPLC grade water, BSA, and phosphate buffered saline (PBS, pH 7.4) were obtained from Fisher Scientific (Fairlawn, N.J.). Ampholytes (Pharmolyte 3-10 for IEF) were obtained from Amersham Biosciences (Piscataway, N.J.).
Sample Preparation. TRITC-labeled proteins were prepared according to manufacturer's protocol. […] TRITC was dissolved in DMSO at 1 mg/mL. The TRITC solution was added to the protein sample, and incubated in the dark for 2 hours.
Focusing Capillaries. 75 μm i.d., 360 μm o.d. fused silica capillaries (Polymicro, Phoenix, Ariz.) were coated with hydroxypropyl cellulose (HPC) by filling the capillaries with a 5% HPC solution and then baking them at 200° C. for 45 minutes. This treatment effectively eliminated the electroosmotic flow in the capillary.
cIEF. […]
Fluorescence anisotropy. Fluorescence emission was viewed using a Leica inverted microscope with a 10× long range objective in an epifluorescence configuration. […]
Since the microscope was operated in epifluorescence mode, it was not possible to measure a true anisotropy value. […] Since both the parallel and perpendicular emission intensities were not measured, the anisotropy value could be calculated, but this configuration did permit the detection of areas with increased anisotropies.

[2] = test system: lysate from MCF-7 breast cancer cells; experiment: DIABLA progesterone-protein interactions in a cell lysate; assay type: binding; conditions: MCF-7 breast cancer cell lysate, protocols as in Example 6
Experimental: The detection sensitivity of DIABLA was tested by examining progesterone-protein interactions in a lysate from MCF-7 breast cancer cells. The experimental protocols were essentially as described above in Example 6, except that a cell lysate was used rather than pure proteins. Five different protein targets that interact with progesterone were identified. FIG. 11 presents one of the targets.

T1 sequence (P02769 25-607): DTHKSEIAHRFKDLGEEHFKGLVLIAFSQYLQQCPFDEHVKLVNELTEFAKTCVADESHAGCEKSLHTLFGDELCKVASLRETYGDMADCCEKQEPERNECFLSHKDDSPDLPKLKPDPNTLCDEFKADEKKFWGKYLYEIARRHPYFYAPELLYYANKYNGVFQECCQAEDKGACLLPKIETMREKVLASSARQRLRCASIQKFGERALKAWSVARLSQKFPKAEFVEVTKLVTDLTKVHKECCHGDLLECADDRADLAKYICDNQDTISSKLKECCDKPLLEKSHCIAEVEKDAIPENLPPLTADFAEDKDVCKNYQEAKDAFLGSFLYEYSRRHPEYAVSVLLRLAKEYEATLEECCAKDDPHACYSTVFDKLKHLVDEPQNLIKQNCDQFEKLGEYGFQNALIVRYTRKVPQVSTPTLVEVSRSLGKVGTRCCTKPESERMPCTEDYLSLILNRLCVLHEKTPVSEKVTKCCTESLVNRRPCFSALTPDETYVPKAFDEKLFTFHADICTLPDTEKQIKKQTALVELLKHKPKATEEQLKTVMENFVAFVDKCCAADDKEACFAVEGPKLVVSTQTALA

In the case of `CC(=O)[C@H]1CC[C@H]2[C@@H]3CCC4=CC(=O)CC[C@]4(C)[C@H]3CC[C@]12C` [progesterone], the “anisotropy in the region containing the focused BSA band” value [1] is reported as “no or low anisotropy” and the “number of protein targets that interact with progesterone identified” value [2] is reported as “Five”.
